Data set [1] can be described thus: Solubility in japanese pharmacopoeia second fluid at pH 6.8. The format is physicochemical.
The nature of data set [2]: Metabolic stability assessed as intrinsic clearance in human liver microsome. Format: ADME. The note with it: liver microsomes.
Data set [3] in a line: Metabolic stability assessed as half life in human liver microsome. The format is ADME. Particulars: liver microsomes. For orientation: Liver microsomes are vesicles of endoplasmic reticulum, rich in cytochrome P450 enzymes.
The next data set addresses Coagulation factor X (Homo sapiens, UniProt P00742). The data set is described as follows: Inhibition of human factor 10a.
The next data set concerns Plasma. Kind of data set: Anticoagulant activity in human plasma assessed as concentration required to double prothrombin time. Format: functional.
Data set [4] has as its system Rattus norvegicus. The data set is described as follows: Ex vivo inhibition of factor 10a in Wistar rat plasma at 10 mg/kg, po after 2 hrs. Format: functional.
The subject of data set [5] is Rattus norvegicus. Kind of data set: Ex vivo inhibition of factor 10a in Wistar rat plasma at 10 mg/kg, po after 4 hrs. The format is functional.
Data set [6] has as its system Rattus norvegicus. The data set is described as follows: Ex vivo inhibition of factor 10a in Wistar rat plasma at 10 mg/kg, po after 1 hr. The format is functional.
For data set [7], the system named is Rattus norvegicus. Kind of data set: Ex vivo inhibition of factor 10a in Wistar rat plasma at 10 mg/kg, po after 0.5 hrs. The format is functional.
Data set [8] in a line: Cmax in monkey at 1.0 mg/kg, po. Also noted: dose 1 mg/kg, route oral. Format: ADME, organism-based, Macaca mulatta. The note with it: rhesus monkey, in vivo.
Data set [9] in a line: AUC (0 to 24 hrs) in monkey at 1.0 mg/kg, po. Format: ADME, organism-based, Macaca mulatta. Also noted: time < 24 hr, dose 1 mg/kg, route oral. The note with it: rhesus monkey, plasma.
The nature of data set [10]: Tmax in monkey at 1.0 mg/kg, po. The format is ADME, organism-based, Macaca mulatta. Details: dose 1 mg/kg, route oral. The note with it: rhesus monkey, in vivo.

Each structure is given as a SMILES string. pIC50: −log10 of the molar value. Values after ≈ are worked out from the molar mass of the structure shown. Bounds are passed on as bounds.

The values that follow come from ChEMBL document CHEMBL1143176, “Design, synthesis, and biological activity of piperidine diamine derivatives as factor Xa inhibitor” (Bioorg Med Chem Lett, 2008).

Chain of Coagulation factor X (P00742 41-179 limits assumed): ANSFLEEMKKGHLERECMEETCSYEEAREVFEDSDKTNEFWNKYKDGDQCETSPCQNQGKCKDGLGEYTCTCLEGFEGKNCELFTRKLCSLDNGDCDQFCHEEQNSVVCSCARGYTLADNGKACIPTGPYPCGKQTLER
Chain of Coagulation factor X (P00742 235-488 limits assumed): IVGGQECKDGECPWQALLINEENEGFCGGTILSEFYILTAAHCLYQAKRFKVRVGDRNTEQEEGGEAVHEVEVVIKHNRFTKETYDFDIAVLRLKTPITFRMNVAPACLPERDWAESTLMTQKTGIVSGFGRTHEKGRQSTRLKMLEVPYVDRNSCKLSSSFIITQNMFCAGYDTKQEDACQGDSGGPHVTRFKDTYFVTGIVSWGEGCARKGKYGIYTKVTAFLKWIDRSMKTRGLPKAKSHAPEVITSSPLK

Usually solubility stands for the concentration that dissolves in the medium under given conditions. By CLint scaled is commonly meant the rate of metabolic loss divided by the concentration. The term half-life denotes how long it takes for the measured level to halve. `CN1CCc2nc(C(=O)N[C@@H]3CCCC[C@@H]3NC(=O)c3cc4cc(Cl)ccc4[nH]3)sc2C1` returned a solubility in data set [1] of 16 µg/mL (≈ 33.9 µM). For the same compound, in data set [2], the intrinsic metabolic clearance (CLint scaled) turned out to be 97.2 mL/min/kg. Further, the half-life in data set [3] was determined as 6.42 min.
The pIC50 is −log10 of the IC50, conventionally taken in molar units. Regarding `CC(C)C(=O)N1CC[C@H](NC(=O)c2cc3cc(Cl)ccc3[nH]2)[C@H](NC(=O)c2nc3c(s2)CN(C)CC3)C1`, the pIC50 at Coagulation factor X was 8.25. In data set [1], this compound returned a solubility of 66 µg/mL (≈ 122 µM). The Activity in the data set on Plasma was 1.1 µM.
As a reminder, the inhibition in vivo is the relative decrease from the control value, in per cent. In the case of `CN1CCc2nc(C(=O)N[C@@H]3CN(C(=O)CO)CC[C@@H]3NC(=O)c3cc4cc(Cl)ccc4[nH]3)sc2C1`, the inhibition in vivo at 10 mg/kg was -2.5% in the data set with Rattus norvegicus [4], -7.3% in the data set on Rattus norvegicus [5], -2% with Rattus norvegicus [6] and 0.76% with Rattus norvegicus [7]. Further, the pIC50 at Coagulation factor X was 8.03. For the same compound, the solubility in data set [1] stood at 410 µg/mL (≈ 772 µM). For the same compound, the Activity in the data set on Plasma is 0.9 µM.
Turning to `COC(=O)CN1CC[C@H](NC(=O)c2cc3cc(Cl)ccc3[nH]2)[C@H](NC(=O)c2nc3c(s2)CN(C)CC3)C1`, at Coagulation factor X, the pIC50 is 7.25. The compound further came in with a solubility in [1] of 28 µg/mL (≈ 51.4 µM). Moreover, in the data set on Plasma, the Activity was determined as 2.1 µM.
As for `COCCN1CC[C@H](NC(=O)c2cc3cc(Cl)ccc3[nH]2)[C@H](NC(=O)c2nc3c(s2)CN(C)CC3)C1`, the pIC50 against Coagulation factor X is 7.33. In data set [1], this compound showed a solubility of 130 µg/mL (≈ 245 µM). Also, the Activity with Plasma turned out to be 3.8 µM.
On the same counts, the results for `CN1CCc2nc(C(=O)N[C@@H]3CN(C(=O)NC(C)(C)C)CC[C@@H]3NC(=O)c3cc4cc(Cl)ccc4[nH]3)sc2C1` are 8.32, 39 µg/mL (≈ 68.2 µM) and 0.78 µM.
At Coagulation factor X, `CCC(=O)N1CC[C@H](NC(=O)c2cc3cc(Cl)ccc3[nH]2)[C@H](NC(=O)c2nc3c(s2)CN(C)CC3)C1` had a negative-log IC50 (pIC50) of 8.05. In [1], this compound yielded a solubility of 160 µg/mL (≈ 302 µM). For the same compound, the Activity in the data set on Plasma turned out to be 0.78 µM.
With `COCC(=O)N1CC[C@H](NC(=O)c2cc3cc(Cl)ccc3[nH]2)[C@H](NC(=O)c2nc3c(s2)CN(C)CC3)C1`, the inhibition in vivo at 10 mg/kg with Rattus norvegicus [4] came out at 38%; with Rattus norvegicus [5] it was 16%; with Rattus norvegicus [6], 50%; in the data set with Rattus norvegicus [7], 68%. This compound showed a pIC50 against Coagulation factor X of 8.24. Besides, the solubility in data set [1] stood at 510 µg/mL (≈ 936 µM). In addition, in the data set with Plasma, the Activity was determined as 0.78 µM.
For `CCNC(=O)N1CC[C@H](NC(=O)c2cc3cc(Cl)ccc3[nH]2)[C@H](NC(=O)c2nc3c(s2)CN(C)CC3)C1`, the inhibition in vivo at 10 mg/kg in the data set with Rattus norvegicus [4] is 5.3%; in the data set on Rattus norvegicus [5], 4.3%; with Rattus norvegicus [6], 11.4%; in the data set on Rattus norvegicus [7] it was 16.7%. Besides, the pIC50 on Coagulation factor X is 8.11. The same compound showed a solubility in data set [1] of 220 µg/mL (≈ 404 µM). Besides, in the data set on Plasma, the Activity was 0.8 µM.
Take `CN1CCc2nc(C(=O)N[C@@H]3CN(C(=O)N(C)C)CC[C@@H]3NC(=O)c3cc4cc(Cl)ccc4[nH]3)sc2C1`: the inhibition in vivo at 10 mg/kg with Rattus norvegicus [4] was 73.7%; in the data set on Rattus norvegicus [5], 68.1%; in the data set on Rattus norvegicus [6], 78.6%; with Rattus norvegicus [7], 80.2%. Further, the solubility in data set [1] came out at 56 µg/mL (≈ 103 µM).
At Coagulation factor X, `CN1CCc2nc(C(=O)N[C@@H]3CN(CC(=O)O)CC[C@@H]3NC(=O)c3cc4cc(Cl)ccc4[nH]3)sc2C1` showed a pIC50 of 7.59. The compound also gave a solubility in data set [1] of 723 µg/mL (≈ 1360 µM). In addition, in the data set on Plasma, the Activity came out at 1.8 µM.
By Cmax is commonly meant the maximum level reached in the sampled fluid or tissue. By AUC(0-t) is commonly meant exposure summed from dosing to a finite time, without extrapolation to infinity. In general, Tmax refers to the time from dosing to the highest level. `CN1CCc2nc(C(=O)N[C@@H]3CCCC[C@@H]3NC(=O)c3cc4cc(Cl)ccc4[nH]3)sc2C1.Cl` came in with a Cmax in [8] of 23.3 ng/mL. For the same compound, in data set [9], the AUC(0-t) at 24 h was determined as 56.6 ng·h/mL. Moreover, the Tmax in data set [10] was found to be 120 min.
Take `COCC(=O)N1CC[C@H](NC(=O)c2cc3cc(Cl)ccc3[nH]2)[C@H](NC(=O)c2nc3c(s2)CN(C)CC3)C1.Cl`: the highest level in data set [8] (Cmax) was 36.4 ng/mL. In data set [9], this compound registered an area under the curve AUC(0-t) at 24 h of 83.6 ng·h/mL. Moreover, in [10], the Tmax was found to be 72 min.
With `CCC(=O)N1CCC(NC(=O)c2cc3cc(Cl)ccc3[nH]2)C(NC(=O)c2nc3c(s2)CN(C)CC3)C1` (racemic), the CLint scaled in data set [2] came to 103 mL/min/kg. For the same compound, the half-life in data set [3] was 6.08 min.
On the same counts, the results for `COCC(=O)N1CCC(NC(=O)c2cc3cc(Cl)ccc3[nH]2)C(NC(=O)c2nc3c(s2)CN(C)CC3)C1` (racemic) are 45.9 mL/min/kg and 13.6 min.
In the same order, the values of `CN1CCc2nc(C(=O)NC3CN(C(=O)CO)CCC3NC(=O)c3cc4cc(Cl)ccc4[nH]3)sc2C1` (racemic) are 41.4 mL/min/kg and 15.1 min.
With `CC(=O)N1CCC(NC(=O)c2cc3cc(Cl)ccc3[nH]2)C(NC(=O)c2nc3c(s2)CN(C)CC3)C1` (racemic), the solubility in data set [1] came to 421 µg/mL (≈ 817 µM). For the same compound, the CLint scaled in data set [2] amounted to 95.4 mL/min/kg. The half-life in [3] stood at 6.54 min.
On to `CN1CCc2nc(C(=O)NC3CN(C(=O)N(C)C)CCC3NC(=O)c3cc4cc(Cl)ccc4[nH]3)sc2C1` (racemic), for which the CLint scaled in data set [2] was determined as 92.7 mL/min/kg. For the same compound, the half-life in [3] was determined as 6.73 min.
`CN1CCc2nc(C(=O)NC3CCCCC3NC(=O)c3cc4cc(Cl)ccc4[nH]3)sc2C1` (racemic): in [1], the solubility stood at 17 µg/mL (≈ 36 µM). In data set [2], the intrinsic clearance (CLint scaled) came out at 81 mL/min/kg. Besides, the half-life in [3] was determined as 7.7 min. Also, the Activity in the data set with Plasma came out at 4.4 µM.
On to `CCOC(=O)N1CCC(NC(=O)c2nc3c(s2)CN(C)CC3)C(NC(=O)c2cc3cc(Cl)ccc3[nH]2)C1` (racemic), for which, on Coagulation factor X, the pIC50 was 6.96. The compound further displayed a solubility in data set [1] of 37 µg/mL (≈ 67.9 µM). For the same compound, the Activity in the data set with Plasma came to 11 µM.
On Coagulation factor X, `CC(=O)N1CCC(NC(=O)c2nc3c(s2)CN(C)CC3)C(NC(=O)c2cc3cc(Cl)ccc3[nH]2)C1` (racemic) gave a negative-log IC50 (pIC50) of 7.32. The compound also yielded a solubility in data set [1] of 290 µg/mL (≈ 563 µM). Besides, the Activity in the data set on Plasma came to 5.8 µM.
As for `CCOC(=O)N1CCC(NC(=O)c2cc3cc(Cl)ccc3[nH]2)C(NC(=O)c2nc3c(s2)CN(C)CC3)C1` (racemic), the pIC50 against Coagulation factor X was 8.35. Further, the solubility in [1] amounted to 43 µg/mL (≈ 78.9 µM). Further, the CLint scaled in data set [2] turned out to be 138 mL/min/kg. Further, the half-life in [3] is 4.53 min. Besides, the Activity with Plasma was 1.4 µM.
For `CN1CCc2nc(C(=O)NC3CNCCC3NC(=O)c3cc4cc(Cl)ccc4[nH]3)sc2C1` (racemic), the negative-log IC50 (pIC50) at Coagulation factor X was 7.21. Further, in data set [1], the solubility is 996 µg/mL (≈ 2110 µM). Also, in the data set with Plasma, the Activity was 1.3 µM.
`CN1CCc2nc(C(=O)NC3CCN(C(=O)OC(C)(C)C)CC3NC(=O)c3cc4cc(Cl)ccc4[nH]3)sc2C1` (racemic) showed a pIC50 against Coagulation factor X of 6.89. This compound gave a solubility in [1] of less than 1 µg/mL. In addition, in the data set with Plasma, the Activity is 6.2 µM.
In the case of `CN1CCc2nc(C(=O)NC3CN(C(=O)NC(C)(C)C)CCC3NC(=O)c3cc4cc(Cl)ccc4[nH]3)sc2C1` (racemic), the intrinsic metabolic clearance (CLint scaled) in [2] was 99.9 mL/min/kg. Also, in data set [3], the half-life was 6.24 min.
On to `CN1CCc2nc(C(=O)NC3CN(C(=O)OC(C)(C)C)CCC3NC(=O)c3cc4cc(Cl)ccc4[nH]3)sc2C1` (racemic), for which, on Coagulation factor X, the negative-log IC50 (pIC50) was 8.00. The compound also came in with a solubility in [1] of 3 µg/mL (≈ 5.23 µM). In addition, in data set [2], the intrinsic metabolic clearance (CLint scaled) worked out at 140 mL/min/kg. In addition, the half-life in [3] came to 4.44 min. The Activity in the data set on Plasma was determined as 3.5 µM.
For the compound `CN1CCc2nc(C(=O)NC3CCN(S(C)(=O)=O)CC3NC(=O)c3cc4cc(Cl)ccc4[nH]3)sc2C1` (racemic), the pIC50 against Coagulation factor X is 7.35. The compound also registered a solubility in [1] of 70 µg/mL (≈ 127 µM). The Activity in the data set with Plasma amounted to 8 µM.
On the same counts, the results for `CN1CCc2nc(C(=O)NC3CCNCC3NC(=O)c3cc4cc(Cl)ccc4[nH]3)sc2C1` (racemic) are 6.28, 830 µg/mL (≈ 1750 µM) and more than 20 µM.
For the compound `CC(C)C(=O)N1CCC(NC(=O)c2cc3cc(Cl)ccc3[nH]2)C(NC(=O)c2nc3c(s2)CN(C)CC3)C1` (racemic), in data set [2], the intrinsic metabolic clearance (CLint scaled) is 98.1 mL/min/kg. The half-life in data set [3] came out at 6.36 min.
Turning to `CCNC(=O)N1CCC(NC(=O)c2cc3cc(Cl)ccc3[nH]2)C(NC(=O)c2nc3c(s2)CN(C)CC3)C1` (racemic), the intrinsic clearance (CLint scaled) in [2] was 86.4 mL/min/kg. Further, the half-life in data set [3] was 7.22 min.
At Coagulation factor X, `CN1CCc2nc(C(=O)NC3CN(S(C)(=O)=O)CCC3NC(=O)c3cc4cc(Cl)ccc4[nH]3)sc2C1` (racemic) showed a negative-log IC50 (pIC50) of 7.55. This compound also displayed a solubility in [1] of 103 µg/mL (≈ 187 µM). In the data set with Plasma, the Activity came out at 2.5 µM.
